# PubChem BioAssay AID2305 (GlaxoSmithKline (GSK), 2010)
# “And” between values parts separate entries of the source, which are not always exact repeats. Identical values can stand only once.
# System: P. falciparum 3D7 growth, pLDH absorbance
# Experiment: P. falciparum 3D7 growth inhibition, dose response, strain 3D7 (AID 2305)
row,SMILES,IC50
1,COc1ccc(C2C(C(=O)OC3CCCC3)=C(C)NC3=C2C(=O)CCC3)cc1Br (centres undefined),590 nM
2,CC(C)CNCc1cccc(-c2cccc(CNCCCN3CCN(C)CC3)c2)c1,1180 nM
3,O=C(NCCCN1CCCCC1)c1ccc(Nc2nccc(Nc3ccc(Oc4ccccc4)cc3)n2)cc1,630 nM
4,Cc1nn(CC(O)Cn2c3ccc(Br)cc3c3cc(Br)ccc32)c(C)c1Br (centres undefined),710 nM
5,FC(F)(F)c1ccc(COc2cc(Cl)ccc2Cn2ccnc2)cc1,650 nM
6,c1cc(CNCCc2ccncc2)cc(-c2cccc(-c3nc4ccccc4[nH]3)c2)c1,150 nM
7,CN(C)C(CNC(=O)c1cc(-c2ccncc2)c(-c2ccc(Cl)c(O)c2)o1)c1ccccc1 (centres undefined),840 nM
8,CC(C)NCc1ccc(-c2cccc(NC(=O)c3ccc(Cl)cc3)c2)cc1,290 nM
9,CCCCCCN(CCCCCC)CCCCNc1c2ccc(Cl)cc2nc2ccc(OC)cc12,540 nM
10,COc1ccc(NC(=O)NC2CCN(c3ccnc4ccccc34)C2)cc1 (centres undefined),870 nM
11,O=C(Nc1ccccc1)N(Cc1ccc(-c2ccc(CNC3CCCC3)cc2)cc1)C1CCN(Cc2ccccc2)CC1,410 nM
12,Oc1cc(Nc2ccnc3cc(I)ccc23)c(F)cc1Cl,830 nM
13,CCc1cc2c(Sc3nc4ccccc4[nH]3)ncnc2s1,820 nM
14,CCOc1cc(C(=O)Nc2ccc3nc(N4CCN(C)CC4)cc(C)c3c2)cc(OCC)c1OCC,850 nM
15,CCc1ccc(S(=O)(=O)Nc2cccc(CCN3CCC(N4CCCCC4)CC3)c2)cc1,900 nM
16,COc1cc(CN2CCN(c3ccnc(N(C)C4CCN(C)CC4)n3)CC2)cc(Cl)c1O,780 nM
17,COc1cccc(C(=O)NC(c2ccccc2OC)c2cc(Cl)c3cccnc3c2O)c1 (centres undefined),1190 nM
18,COc1cccc(C(=O)[C@H]2C[C@@H]2CN(C)CC(O)c2cc(C)c(OC)cc2C)c1 (some centres undefined),1140 nM
19,CCNc1cc(C(=O)N[C@@H](Cc2ccccc2)[C@H](O)CNC(CC)c2cccc(Cl)c2)cc(N2CCCCS2(=O)=O)c1 (some centres undefined),50 nM
20,O=c1cc(NCCC(CNCc2ccc(Br)o2)NCc2cc(Br)cc(Br)c2)[nH]c2ccccc12 (centres undefined),860 nM
21,OC(COCc1ccc(-c2ccccc2)cc1)CN1CCCCC1 (centres undefined),270 nM
22,O=C(/C=C/c1ccc(Cl)c(Cl)c1)NCCCCCN1CCC(NC(=O)Nc2ccc(F)cc2F)CC1,740 nM
23,CCNc1cc(C(=O)N[C@@H](Cc2ccccc2)[C@H](O)CNCc2ccc3c(c2)OCCO3)cc(N2CCCCS2(=O)=O)c1,1350 nM
24,CCCCCc1cc(O)c2c(c1)OC(C)(C)C=C2C1=CCN(Cc2ccsc2)CC1,960 nM
25,CCC(C)(CC)C(=O)n1ncc2c3c(N)nc(N)nc3ccc21,10 nM

row,SMILES,IC50
1,C=CCN(C(=O)c1ccc(Cl)c([N+](=O)[O-])c1)c1nc(-c2ccccc2)cs1,400 nM
2,COc1cccc([C@@H](CC(=O)Nc2cc(C(F)(F)F)ccc2OC)Nc2ccc(C#N)c3ccccc23)c1,990 nM
3,COc1ccc(-c2cnc3ccc(NCc4ccc(F)cc4)nn23)cc1OC,830 nM
4,CN1CCN(c2ccc(Nc3ncc(C#N)c(Nc4ccccc4C(N)=O)n3)cc2)CC1,40 nM
5,Cn1cnc(CCNC(=O)c2ccc(-c3cccc(-c4nc5ccc(C(F)(F)F)cc5[nH]4)c3)cc2)c1,730 nM
6,NC(=O)c1cccc(C(=O)Nc2ccc(-c3cccc(-c4nc5ccc(C(F)(F)F)cc5[nH]4)c3)cc2)c1,350 nM
7,Cc1ccccc1C(O)CNc1ccnc(Nc2cccc(C#N)c2)n1 (centres undefined),880 nM
8,CCOc1cc(NC(=O)Nc2ccnc3ccccc23)cc(OC)c1,870 nM
9,CC(C)(C)c1ccc(CN2CCC(CNC(=O)c3cc(-c4cccc(C(F)(F)F)c4)cs3)C2)cc1 (centres undefined),1030 nM
10,Cn1cccc1CCNCc1ccc(-c2cccc(-c3nc4ccccc4[nH]3)c2)cc1,1210 nM
11,Cc1cccc2c3c([nH]c12)C1(CCN(Cc2ccccc2)CC1)NC(C(=O)NCc1ccccc1)C3 (centres undefined),1370 nM
12,CCN(CC)CCCC(C)Nc1ccnc2ccc(OC)cc12 (centres undefined),820 nM
13,Oc1cccc(-c2nc(-c3cccc(I)c3)c(-c3ccc(-c4nc(-c5cccc(O)c5)[nH]c4-c4cccc(I)c4)cc3)[nH]2)c1,920 nM
14,Nc1ncnc2nc(-c3ccc(F)cc3)cc(-c3ccc(NC(=O)c4ccccc4)cc3)c12,640 nM
15,CCC(CC)CN1C(=O)C(c2ccccc2)(c2ccccc2)N=C1N,970 nM
16,Cc1ccc(NC(=O)c2ccc3ncccc3c2)cc1OC1CCN(C(C)C)C1 (centres undefined),990 nM
17,COC(=O)c1cccc(CNCc2ccc(-c3ccc(-c4nc5ccc(F)cc5[nH]4)s3)cc2)c1,590 nM
18,Fc1ccc(C=NNc2ccnc3ccc(C(F)(F)F)cc23)cc1,1100 nM
19,O=C(c1cccc(COc2ccc3c(c2)CCN(C2CCCC2)CC3)c1)N1CCN(c2ccncc2)CC1,740 nM
20,COc1c(CCNCCCCNCCc2cc(Cl)c3ccccc3c2OC)cc(Cl)c2ccccc12,170 nM
21,Cn1cc(CN2CCC(CCOC(c3ccccc3)c3ccccc3)CC2)cn1,260 nM
22,COc1ccc2c(c1)[nH]c1c(C=Cc3ccccc3)nccc12,380 nM
23,CCn1ncc(Cl)c1CN(C)S(=O)(=O)c1ccc(Br)cc1,1020 nM
24,CC(Nc1ccc2c(c1)OCCO2)C(=O)Nc1cc(C(F)(F)F)ccc1N1CCOCC1 (centres undefined),410 nM
25,CCOc1ccc(Br)cc1/C=C/C(=O)Nc1ccc2c(c1)CCCN(C)C2,1050 nM

row,SMILES,IC50
1,Cc1cc(N[C@@H](Cc2ccccc2)C(=O)NC2CCCC2)nc(NCCc2cccs2)n1,1400 nM
2,N#Cc1ccccc1N1CCN(C2CCC(NC(=O)c3n[nH]c4cc(C(F)(F)F)ccc34)CC2)CC1 (centres undefined),1370 nM
3,C(=Cc1ccccc1)C=NNc1ccnc2ccccc12,730 nM
4,CC1CCCN(C(=O)C(C)Nc2cc(Cl)ccc2N2CCOCC2)C1 (centres undefined),320 nM
5,O=C(C=Cc1cc([N+](=O)[O-])ccc1Cl)NC1CCC(CN2CCC(c3c[nH]c4ccccc34)CC2)CC1 (centres undefined),740 nM
6,O=[N+]([O-])c1ccccc1C=NNc1ccnc2ccc(C(F)(F)F)cc12,710 nM
7,COc1cccc(-c2ccc3c(-c4ccc(F)cc4)cnc(N)c3c2)c1,810 nM
8,NC(=O)c1cccc(C(=O)Nc2cccc(-c3ccc(-c4nc5ccc(C(F)(F)F)cc5[nH]4)cc3)c2)c1,520 nM
9,COc1cc(CCNC(=O)Cc2ccc3ccccc3c2)ccc1OCc1ccccc1,1020 nM
10,C/C=C1\CN2CC[C@H]1C[C@H]2[C@H](O)c1ccnc2ccc(OC)cc12,220 nM and 320 nM
11,CC(C)c1cc2c(cc1O)C(Cc1ccccc1Cl)N(C)CC2 (centres undefined),730 nM
12,CC(C)CNCc1cccc(-c2cccc(CN(CCN(C)C)C(=O)NCCc3ccccc3)c2)c1,690 nM
13,O=C(/C=C/c1ccc(Cl)cc1)NCCCCCN1CCCC(C(=O)Nc2cccc(Cl)c2)C1 (centres undefined),210 nM
14,COc1ccc(C(=O)Nc2cc(Br)c3c(c2)CNCC3)cc1Br,910 nM
15,O=C(NCCCCN1CC=C(c2ccc3c(c2OCC2CC2)CCCC3)CC1)c1ccc(-c2ccc(C(F)(F)F)cc2)cc1,540 nM
16,Cc1cc(NN=Cc2cccc(Cl)c2)c2ccc(F)cc2n1,240 nM
17,CCOC(=O)c1cn(CC)c2cc(OCc3ccccc3)ccc2c1=O,950 nM
18,O=C(/C=C/c1ccc(Cl)c(Cl)c1)NCCCCCN1CCCN(C(=O)Nc2ccc(F)c(F)c2)CC1,800 nM
19,CCCNCc1ccc(-c2ccc(CN(CCOC)C(=O)c3cscn3)cc2)nc1,180 nM
20,COc1cccc(C(C)(C)NC[C@@H](O)[C@H](Cc2ccccc2)NC(=O)c2cc(C3CCCC3)cc(N3CCCCS3(=O)=O)c2F)c1,30 nM
21,O=C(NCCCCN1CCC(c2ccc3c(c2OCC2CC2)CCCC3)CC1)c1ccc(NC(=O)c2ccc(Cl)cc2)cc1,680 nM
22,Cc1cc(NC(=O)Nc2ccc(Cl)cc2F)c2ccccc2n1,550 nM
23,Cc1ccc(-c2cc3nc4c(c(NCCCn5ccnc5)n3n2)CCC4)cc1,920 nM
24,O=c1cc(NCCCNCc2cccc(C(F)(F)F)c2Cl)[nH]c2ccccc12,800 nM
25,O=C(Nc1cccnc1)c1cc(-c2cccnc2)nc2ccc(Br)cc12,640 nM

row,SMILES,IC50
1,O=C(/C=C/c1ccc(Cl)c(Cl)c1)NCCCCN1CCCN(C(=O)Nc2ccc(Cl)c(Cl)c2)CC1,860 nM
2,Cc1ccc(Nc2nc(C)cc(NC3CCCC3)n2)cc1,290 nM
3,CC(C)Sc1nc2c(c(=O)n1CCc1ccccc1)C1(CCCC1)Cc1ccccc1-2,350 nM
4,CCC1(CC)CN(c2ccccc2)c2ccc(O)cc2S(=O)(=O)C1CC(C)C (centres undefined),400 nM
5,CCc1nc2nc(C)cc(Nc3ccc4c(c3)OCCO4)n2n1,1290 nM
6,CN(CC(=O)Nc1cc(C(F)(F)F)ccc1-n1cncn1)Cc1nc2ccccc2s1,1410 nM
7,O=C(Nc1ccc(-c2csc(-c3nc4ccccc4[nH]3)c2)cc1)Nc1ccc(F)c(F)c1F,330 nM
8,CS(=O)(=O)CCNCc1nc(-c2ccc3c(Nc4ccc(Oc5ccccn5)cc4)ccnc3c2)cs1,680 nM
9,C[C@@H]1CN(c2cnn(Cc3cccc(NC(=O)Nc4cccc(C(F)(F)F)c4)c3)c(=O)c2Cl)C[C@H](C)N1,820 nM
10,N#Cc1cc(C(=O)c2cc(Cl)ccc2O)cn(-c2cccc(C(F)(F)F)c2)c1=O,1130 nM
11,Cc1ccc(N2C(N)=NC(N)=NC2(C)C)cc1Cl,10 nM
12,COc1cccc(CC(C)NCC(O)c2cccc(Cl)c2)c1 (centres undefined),1270 nM
13,CCN(CC)CCN(Cc1ccc(-c2ccc(C(F)(F)F)cc2)cc1)C(=O)CN1C(CCc2cccc(F)c2F)=NS(=O)(=O)c2ccccc21,240 nM
14,O=C(Nc1cccc(-c2ccc(-c3nc4ccc(C(F)(F)F)cc4[nH]3)cc2)c1)c1cccnc1,570 nM
15,C[C@H](Nc1c(Nc2ccc3[nH]ccc3c2)c(=O)c1=O)C1CCCCC1,210 nM
16,Cc1[nH]c2ccccc2c1C1=CCN(CCCCC2(C)C(=O)Nc3ccccc32)CC1 (centres undefined),230 nM
17,CN(C)CCN(C)Cc1ccc(-c2ccc3c(Nc4ccc(Oc5ccccn5)cc4)ccnc3c2)o1,420 nM
18,O=C(CCc1cnc[nH]1)Nc1cccc(-c2cccc(-c3nc4ccccc4[nH]3)c2)c1,660 nM
19,CCS(=O)(=O)c1ccc(OC)c(Nc2nccc(-c3c(-c4cccc(NC(=O)c5c(F)cccc5F)c4)nn4ncccc34)n2)c1,1030 nM
20,CS(=O)(=O)CCNCc1ccc(-c2ccc3c(Nc4ccc(Oc5ccccn5)cc4)ccnc3c2)o1,710 nM
21,c1ccc(Oc2ccc(Nc3ccnc4cc(-c5ccc(CN6CCCCC6)o5)ccc34)cc2)nc1,330 nM
22,CC[C@H](C)CNC(=O)c1cncc(-c2ccc(CNCC3CNCCCO3)cc2)c1 (some centres undefined),1020 nM
23,COc1ccc(Br)cc1C1Nc2ccc3ccccc3c2C2=C1C(=O)CC(c1ccccc1)C2 (centres undefined),590 nM
24,NC(=O)C1CCN(Cc2ccc(-c3ccc(-c4nc5ccc(F)cc5[nH]4)cc3)cc2)CC1,810 nM
